Assay results reported in patent US9381142B2, “Olfactory adaptation and cross-adapting agents to reduce the perception of body odors” (Monell Chemical Senses Center, priority 2002, dated 2016).

How the values were obtained:
[1] = test system: female stress-derived axillary odor; test: Cross-adaptation of female stress-derived axillary odor (odor panel, magnitude estimation of perceived intensity); assay type: in vivo, human; conditions: for Magnitude of Reduction of Intensity of Female Stress-Derived Odor (FSDO), Males: female stress-derived odor perceived by men; for Magnitude of Reduction of Intensity of Female Stress-Derived Odor (FSDO), Females: female stress-derived odor perceived by women
Description: (§1) The procedure relies upon an individual constantly sniffing an adapting agent, such as a fragrance, and occasionally a test odorant. Perceived intensity of the test odorant is obtained by using psychophysical, magnitude-estimation procedures. These perceived intensities are obtained every 30 seconds over the test period, and are then compared with baseline perceived intensities obtained before the individual began sniffing the adapting agent. Throughout the testing we observe adaptation to the adapting agent. Results during trials with an inserted test odorant, such as the axillary odor used here, are believed to be reasonably predictive. If the perceived intensity of the test odorant decreases during the test, then the adapting agent cross-adapts the test odorant and becomes a cross-adapting agent. If the cross-adapting agent is itself not offensive, then the cross-adapting agent becomes a candidate for use in formulations in consumer products to ameliorate malodors, such as axillary odor or fecal/urine odors, and odors related to the female menstrual cycle.
(§2) Collection of secretions: Apocrine secretions obtained under stressed conditions provided the axillary odor that was used as the test odorant to evaluate the effectiveness of various adapting agents. Secretions were obtained from males (ages 20 to 60 years) and females (ages 20 to 40 years) in good health. […] Volunteers prepared their axillae for collection of apocrine secretions by refraining from deodorant use for 3 days and shaving their axillae the morning of the collection day.
(§3) Volunteers were rested in a supine position. The axillary regions were washed with isopropanol-soaked pads and injected intradermally with 1:10,000 adrenalin (in physiologic saline). This injection stimulated the secretion of apocrine gland secretions, which were collected in 10 μl pipettes, passed into 0.25 ml Eppendorf tubes, and stored on ice (or frozen for longer storage). The amount of secretion collected varied greatly with the individual subject (≦10 μl). The apocrine secretions from each volunteer were combined by consecutively washing each Eppendorf tube with 2×300 μl of doubly distilled water. This aqueous-apocrine fluid was transferred to a 5 ml round-bottomed flask for hydrolysis. X-N. Zeng, J. J. Leyden, J. G. Brand, A. I. Spielman, K. J. McGinley, G. Preti, An Investigation of Human Apocrine Gland Secretion for Axillary Odor Precursors, 18 J. Chem. Ecol. 1039-1055 (1992); X-N. Zeng, J. J. Leyden, A. I. Spielman and G. Preti Analysis of the characteristic human female axillary odors: Qualitative comparison to males. 22 J. Chem. Ecol. 237-257 (1996).
(§4) Production of odor: To produce quantities of stress-derived axillary odor for testing purposes, we hydrolyzed the apocrine secretion. The aqueous solution was refluxed for 20 min with 0.5 ml, 5% aqueous sodium hydroxide under a stream of nitrogen. The mixture was allowed to cool to room temperature, and then it was cooled in ice prior to being acidified with 6 N HCl to pH 2. The resulting axillary odor developed in the reaction mixture upon acidification was used as the test odorant. The axillary odors generated by this in vitro technique are analogous to the malodors produced by stressed individuals.
A separate panel of 24 subjects (12 males and 12 females) tested samples of female stress-derived axillary odor with potential cross-adapting agents, some of which were not included in Example 1 above. Some of the subjects assessing the effectiveness of cross-adaptation of male stress-derived axillary odor were also used in the experiment with female secretions. However, these two experiments were treated as independent events. All panel members were screened for adequate use of magnitude estimation and further trained in its use during two to three training sessions. […]

[2] = test system: male stress-derived axillary odor; test: Cross-adaptation of male stress-derived axillary odor (odor panel, magnitude estimation of perceived intensity); assay type: in vivo, human; conditions: for Magnitude of Reduction of Intensity of Male Stress-Derived Odor (MSDO), Males: male stress-derived odor perceived by men; for Magnitude of Reduction of Intensity of Male Stress-Derived Odor (MSDO), Females: male stress-derived odor perceived by women
Description: as §1, §2, §3, §4
Sixteen (16) individuals (8 of each gender) served on an odor panel. Subjects ranged in age from 22 to 55 years (mean 32.7±10.6 s.d.), were not pregnant (by verbal report), and were all non-smokers. All panel members were screened for adequate use of magnitude estimation (some people have difficulties maintaining a ratio scale, i.e., when an odorant is half as strong as the previous, these people fail to provide a number that is half the previous estimate) and further trained in its use during 2-3 training sessions. All 16 subjects were tested with samples of male malodor compared to each of the potential cross-adapting agents. […]
Also: key: best: Best = Superior Cross-Adaptation; good: Good = Adequate Cross-Adaptation; poor: Poor = Ineffective Cross-Adaptation.

Compound | Magnitude of Reduction of Intensity of Female Stress-Derived Odor (FSDO), Males [1] | Magnitude of Reduction of Intensity of Female Stress-Derived Odor (FSDO), Females [1] | Magnitude of Reduction of Intensity of Male Stress-Derived Odor (MSDO), Males [2] | Magnitude of Reduction of Intensity of Male Stress-Derived Odor (MSDO), Females [2]
CC=CC(=O)C1C(C)=CCCC1(C)C (stereo not drawn) [α-Damascone, 1-(2,6,6-trimethyl-2-cyclohexen-1-yl)-2-buten-1-one] | poor | good | poor | poor
l-carvone | good | best | best | best
oxacyclohexadecen-2-one [GLOBALIDE ®] | poor | good | good | poor
